PubChem BioAssay (NCI)
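How tested: cells in 96-well plates exposed to compound for 48 hours at five concentrations. GI50 marks 50% less growth. TGI denotes the concentration required for complete inhibition of growth.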

Legend:
Experiment in all cases: DTP human tumour cell line panel, 48 h
[1] = system: 786-0 renal
[2] = system: A498 renal
[3] = system: A549 NSCLC
[4] = system: ACHN renal
[5] = system: BT-549 breast
[6] = system: CAKI-1 renal
[7] = system: CCRF-CEM leukemia
[8] = system: COLO 205 colon
[9] = system: DU-145 prostate
[10] = system: EKVX NSCLC
[11] = system: HCC-2998 colon
[12] = system: HCT-116 colon
[13] = system: HCT-15 colon
[14] = system: HL-60(TB) leukemia
[15] = system: HOP-62 NSCLC
[16] = system: HOP-92 NSCLC
[17] = system: HS 578T breast
[18] = system: HT29 colon
[19] = system: IGROV1 ovarian
[20] = system: K-562 leukemia
[21] = system: KM12 colon
[22] = system: LOX IMVI melanoma
[23] = system: MALME-3M melanoma
[24] = system: MCF7 breast
[25] = system: MDA-MB-231 breast
[26] = system: MDA-MB-435
[27] = system: MOLT-4 leukemia
[28] = system: NCI-H226 lung
[29] = system: NCI-H23 lung
[30] = system: NCI-H460 lung
[31] = system: NCI-H522 lung
[32] = system: NCI/ADR-RES ovarian
[33] = system: OVCAR-3 ovarian
[34] = system: OVCAR-4 ovarian
[35] = system: OVCAR-5 ovarian
[36] = system: OVCAR-8 ovarian
[37] = system: PC-3 prostate
[38] = system: RPMI-8226 leukemia
[39] = system: RXF 393 renal
[40] = system: SF-268 CNS
[41] = system: SF-295 CNS
[42] = system: SF-539 CNS
[43] = system: SK-MEL-2 melanoma
[44] = system: SK-MEL-28 melanoma
[45] = system: SK-MEL-5 melanoma
[46] = system: SK-OV-3 ovarian
[47] = system: SN12C renal
[48] = system: SNB-19 CNS
[49] = system: SNB-75 CNS
[50] = system: SR leukemia
[51] = system: SW-620 colon
[52] = system: T-47D breast
[53] = system: TK-10 renal
[54] = system: U251 CNS
[55] = system: UACC-257 melanoma
[56] = system: UACC-62 melanoma
[57] = system: UO-31 renal

Cc1ccc(C(=O)Nc2ccc(CNCCN3CCOCC3)c(C(F)(F)F)c2)cc1C#Cc1cnc2cccnn12 was tested, and the GI50 [1] was 1210 nM, the TGI [1] was 3290 nM and the GI50 [2] was 1940 nM. It also gave a TGI [2] of 4280 nM, a GI50 [3] of 2540 nM and a TGI [3] of 10600 nM. For the same compound, the GI50 [4] was 2820 nM, the TGI [4] was 9550 nM and the GI50 [5] was 2270 nM. It also gave a TGI [5] of 4560 nM, a GI50 [6] of 2900 nM and a TGI [6] of 7230 nM. For the same compound, the GI50 [7] was 1550 nM, the TGI [7] was 8230 nM and the GI50 [8] was 1230 nM. For the same compound, the TGI [8] was 3820 nM, the GI50 [9] was 2920 nM and the TGI [9] was 8190 nM. It also gave a GI50 [10] of 3120 nM, a TGI [10] of 10700 nM and a GI50 [11] of 1550 nM. For the same compound, the TGI [11] was 3240 nM, the GI50 [12] was 500 nM and the TGI [12] was 2430 nM. The GI50 [13] was 925 nM, the TGI [13] was 4900 nM and the GI50 [14] was 145 nM. The TGI [14] was 2600 nM, the GI50 [15] was 2160 nM and the TGI [15] was 6550 nM. It also gave a GI50 [16] of 761 nM, a TGI [16] of 3120 nM and a GI50 [17] of 1810 nM. For the same compound, the TGI [17] was 5240 nM, the GI50 [18] was 794 nM and the TGI [18] was 5990 nM. It also gave a GI50 [19] of 1270 nM, a TGI [19] of 3430 nM and a TGI [20] of 11600 nM. The GI50 [21] was 393 nM, the TGI [21] was 2680 nM and the GI50 [22] was 515 nM. The TGI [22] was 1870 nM, the GI50 [23] was 229 nM and the TGI [23] was 1870 nM. It also gave a GI50 [24] of 1420 nM, a TGI [24] of 3200 nM and a GI50 [25] of 1150 nM. The TGI [25] was 3190 nM, the GI50 [26] was 746 nM and the TGI [26] was 2320 nM. The GI50 [27] was 1310 nM, the TGI [27] was 5370 nM and the GI50 [28] was 1660 nM. It also gave a TGI [28] of 7590 nM, a GI50 [29] of 890 nM and a TGI [29] of 3030 nM. It also gave a GI50 [30] of 1760 nM, a TGI [30] of 3900 nM and a GI50 [31] of 1990 nM. The TGI [31] was 5220 nM, the GI50 [32] was 2170 nM and the TGI [32] was 7470 nM. For the same compound, the GI50 [33] was 2390 nM, the TGI [33] was 6240 nM and the GI50 [34] was 2520 nM. The TGI [34] was 14500 nM, the GI50 [35] was 1850 nM and the TGI [35] was 8170 nM. The GI50 [36] was 3090 nM, the TGI [36] was 10800 nM and the GI50 [37] was 2070 nM. The TGI [37] was 6170 nM, the GI50 [38] was 1420 nM and the TGI [38] was 3830 nM. The GI50 [39] was 1630 nM, the TGI [39] was 3210 nM and the GI50 [40] was 2460 nM. For the same compound, the TGI [40] was 7040 nM, the GI50 [41] was 1620 nM and the TGI [41] was 3570 nM. The GI50 [42] was 1320 nM, the TGI [42] was 2670 nM and the GI50 [43] was 1270 nM. The TGI [43] was 3440 nM, the GI50 [44] was 1220 nM and the TGI [44] was 2740 nM. For the same compound, the GI50 [45] was 1450 nM, the TGI [45] was 2810 nM and the GI50 [46] was 3910 nM. For the same compound, the TGI [46] was 13600 nM, the GI50 [47] was 1750 nM and the TGI [47] was 5680 nM. For the same compound, the GI50 [48] was 3110 nM, the TGI [48] was 9730 nM and the GI50 [49] was 64.4 nM. The TGI [49] was 778 nM, the GI50 [50] was 1400 nM and the TGI [50] was 6640 nM. For the same compound, the GI50 [51] was 1660 nM, the TGI [51] was 10500 nM and the GI50 [52] was 2370 nM. For the same compound, the TGI [52] was 6730 nM, the GI50 [53] was 2610 nM and the TGI [53] was 7510 nM. It also gave a GI50 [54] of 1840 nM, a TGI [54] of 4650 nM and a GI50 [55] of 1690 nM. For the same compound, the TGI [55] was 3570 nM, the GI50 [56] was 1450 nM and the TGI [56] was 3430 nM. The GI50 [57] was 1450 nM and the TGI [57] was 3470 nM.
